Reference: patent publication US10413505B1, “Pharmaceutical compositions and methods of using the same” (priority 2017, dated 2019)
Marks after values point to notes of the source that are not given here.

What was measured:
[1] = Example 3 plasma pharmacokinetics, normal hepatic function vs hepatic impairment
[2] = Example 2 plasma pharmacokinetics, normal renal function vs severe renal impairment; details: single intranasal 160 mg cocaine HCl, plasma
[3] = Example 3 urinary pharmacokinetics, normal hepatic function vs hepatic impairment; assay type: in vivo, human; details: for Urine Recovery as % of Dose, Geomean / Urine Recovery as % of Dose, Mean: 0-32 h, single intranasal dose; for CLr Geomean / CLr Mean: Table 26
Experimental: Urine was collected prior to dosing and from 0-2, 2-4, 4-8, 8-12, 12-24, and 24-32 hours after beginning of dose application. […] Urinary pharmacokinetic parameters included total urinary recovery (μg), urinary recovery as a percentage of dose, and CLr.

[4] = normal hepatic function, single intranasal 160 mg cocaine HCl, plasma
[5] = plasma, subjects with hepatic impairment, single intranasal dose
[6] = normal hepatic function, single intranasal 160 mg cocaine HCl
[7] = subjects with hepatic impairment
[8] = subjects with hepatic impairment, 32 hours post administration
[9] = subjects with hepatic impairment, Table 30
[10] = subjects with normal hepatic function

COC(=O)[C@@H]1[C@H]2CC[C@@H](C[C@@H]1O)N2C [EME, ecgonine methyl ester]
AUClast, times higher than normal subjects ([1]; Grade B hepatic impairment): approximately 2.4 times | AUClast, times higher than normal subjects ([1]; Grade C hepatic impairment): 2.2 times | AUC0→t (Geometric mean) [1, 4]: 61.2 ng·h/mL | AUC0→t (Max) [1, 4]: 198 ng·h/mL | AUC0→t (Mean) [1, 4]: 72.9 ng·h/mL | AUC0→t (Median) [1, 4]: 59.1 ng·h/mL | AUC0→t (Min) [1, 4]: 24.5 ng·h/mL | AUC0→∞ (Geometric mean) [1, 4]: 76.1 ng·h/mL | AUC0→∞ (Max) [1, 4]: 212 ng·h/mL | AUC0→∞ (Mean) [1, 4]: 89.6 ng·h/mL | AUC0→∞ (Median) [1, 4]: 72.9 ng·h/mL | AUC0→∞ (Min) [1, 4]: 31.5 ng·h/mL | Clast (Geometric mean) [1, 4]: 1.67 ng/mL | Clast (Max) [1, 4]: 3.72 ng/mL | Clast (Mean) [1, 4]: 1.85 ng/mL | Clast (Median) [1, 4]: 1.60 ng/mL | Clast (Min) [1, 4]: 1.00 ng/mL | Cmax (Geometric mean) [1, 4]: 8.75 ng/mL | Cmax (Max) [1, 4]: 26.8 ng/mL | Cmax (Mean) [1, 4]: 10.0 ng/mL | Cmax (Median) [1, 4]: 7.81 ng/mL | Cmax (Min) [1, 4]: 3.83 ng/mL | Tlast (Geometric mean) [1, 4]: 15.4 h | Tlast (Max) [1, 4]: 28.0 h | Tlast (Mean) [1, 4]: 16.5 h | Tlast (Median) [1, 4]: 12.0 h | Tlast (Min) [1, 4]: 600 min | Tmax (Geometric mean) [1, 4]: 1.33 h | Tmax (Max) [1, 4]: 3.00 h | Tmax (Mean) [1, 4]: 1.45 h | Tmax (Median) [1, 4]: 1.25 h | Tmax (Min) [1, 4]: 30 min | t1/2 (Geometric mean) [1, 4]: 5.99 h | t1/2 (Max) [1, 4]: 9.97 h | t1/2 (Mean) [1, 4]: 6.27 h | t1/2 (Median) [1, 4]: 5.69 h | t1/2 (Min) [1, 4]: 250 min | AUC0→t (Geometric mean) [1, 5]: 146 ng·h/mL | AUC0→t (Mean) [1, 5]: 185 ng·h/mL | AUC0→t (Median) [1, 5]: 140 ng·h/mL | AUC0→∞ (Geometric mean) [1, 5]: 212 ng·h/mL | AUC0→∞ (Mean) [1, 5]: 233 ng·h/mL | AUC0→∞ (Median) [1, 5]: 185 ng·h/mL | Clast (Geometric mean) [1, 5]: 1.57 ng/mL | Clast (Mean) [1, 5]: 1.65 ng/mL | Clast (Median) [1, 5]: 1.67 ng/mL | Cmax (Geometric mean) [1, 5]: 11.3 ng/mL | Cmax (Mean) [1, 5]: 16.1 ng/mL | Cmax (Median) [1, 5]: 9.11 ng/mL | Tlast (Geometric mean) [1, 5]: 26.3 h | Tlast (Mean) [1, 5]: 27.7 h | Tlast (Median) [1, 5]: 32.0 h | Tmax (Geometric mean) [1, 5]: 2.90 h | Tmax (Mean) [1, 5]: 3.84 h | Tmax (Median) [1, 5]: 4.00 h | t1/2 (Geometric mean) [1, 5]: 8.67 h | t1/2 (Mean) [1, 5]: 9.26 h | t1/2 (Median) [1, 5]: 8.3 h | AUC0→t (Geometric mean) ([2]; normal renal function): 41.8 ng·h/mL | AUC0→t (Max) ([2]; normal renal function): 231 ng·h/mL | AUC0→t (Mean) ([2]; normal renal function): 64.0 ng·h/mL | AUC0→t (Median) ([2]; normal renal function): 46.3 ng·h/mL | AUC0→t (Min) ([2]; normal renal function): 9.3 ng·h/mL | AUC0→∞ (Geometric mean) ([2]; normal renal function): 79.3 ng·h/mL | AUC0→∞ (Max) ([2]; normal renal function): 241 ng·h/mL | AUC0→∞ (Mean) ([2]; normal renal function): 94.5 ng·h/mL | AUC0→∞ (Median) ([2]; normal renal function): 66.8 ng·h/mL | AUC0→∞ (Min) ([2]; normal renal function): 44.4 ng·h/mL | Clast (Geometric mean) ([2]; normal renal function): 1.505 ng/mL | Clast (Max) ([2]; normal renal function): 2.58 ng/mL | Clast (Mean) ([2]; normal renal function): 1.583 ng/mL | Clast (Median) ([2]; normal renal function): 1.42 ng/mL | Clast (Min) ([2]; normal renal function): 1.070 ng/mL | Cmax (Geometric mean) ([2]; normal renal function): 5.8 ng/mL | Cmax (Max) ([2]; normal renal function): 19.2 ng/mL | Cmax (Mean) ([2]; normal renal function): 7.5 ng/mL | Cmax (Min) ([2]; normal renal function): 1.8 ng/mL | Tlast (Geometric mean) ([2]; normal renal function): 12.3 h | Tlast (Max) ([2]; normal renal function): 32.0 h | Tlast (Mean) ([2]; normal renal function): 13.5 h | Tlast (Median) ([2]; normal renal function): 12.0 h | Tlast (Min) ([2]; normal renal function): 480 min | Tmax (Geometric mean) ([2]; normal renal function): 2.196 h | Tmax (Max) ([2]; normal renal function): 4.00 h | Tmax (Mean) ([2]; normal renal function): 2.698 h | Tmax (Median) ([2]; normal renal function): 3.0 h | Tmax (Min) ([2]; normal renal function): 20 min | t1/2 (Geometric mean) ([2]; normal renal function): 5.02 h | t1/2 (Max) ([2]; normal renal function): 6.67 h | t1/2 (Mean) ([2]; normal renal function): 5.12 h | t1/2 (Median) ([2]; normal renal function): 5.53 h | t1/2 (Min) ([2]; normal renal function): 217 min | AUC0→t (Geometric mean) ([2]; severe renal impairment): 180.2 ng·h/mL | AUC0→t (Max) ([2]; severe renal impairment): 382 ng·h/mL | AUC0→t (Mean) ([2]; severe renal impairment): 201.1 ng·h/mL | AUC0→t (Median) ([2]; severe renal impairment): 196 ng·h/mL | AUC0→t (Min) ([2]; severe renal impairment): 61.0 ng·h/mL | AUC0→∞ (Geometric mean) ([2]; severe renal impairment): 244.5 ng·h/mL | AUC0→∞ (Max) ([2]; severe renal impairment): 527 ng·h/mL | AUC0→∞ (Mean) ([2]; severe renal impairment): 267.5 ng·h/mL | AUC0→∞ (Median) ([2]; severe renal impairment): 242 ng·h/mL | AUC0→∞ (Min) ([2]; severe renal impairment): 143.9 ng·h/mL | Clast (Geometric mean) ([2]; severe renal impairment): 2.218 ng/mL | Clast (Max) ([2]; severe renal impairment): 5.85 ng/mL | Clast (Mean) ([2]; severe renal impairment): 2.46 ng/mL | Clast (Median) ([2]; severe renal impairment): 1.93 ng/mL | Clast (Min) ([2]; severe renal impairment): 1.51 ng/mL | Cmax (Geometric mean) ([2]; severe renal impairment): 10.3 ng/mL | Cmax (Max) ([2]; severe renal impairment): 20.5 ng/mL | Cmax (Mean) ([2]; severe renal impairment): 11.9 ng/mL | Cmax (Median) ([2]; severe renal impairment): 11.5 ng/mL | Cmax (Min) ([2]; severe renal impairment): 3.2 ng/mL | Tlast (Geometric mean) ([2]; severe renal impairment): 31.5 h | Tlast (Max) ([2]; severe renal impairment): 32.0 h | Tlast (Mean) ([2]; severe renal impairment): 31.5 h | Tlast (Median) ([2]; severe renal impairment): 32.0 h | Tlast (Min) ([2]; severe renal impairment): 1680 min | Tmax (Geometric mean) ([2]; severe renal impairment): 3.715 h | Tmax (Max) ([2]; severe renal impairment): 12.00 h | Tmax (Mean) ([2]; severe renal impairment): 4.53 h | Tmax (Median) ([2]; severe renal impairment): 4.00 h | Tmax (Min) ([2]; severe renal impairment): 90 min | t1/2 (Geometric mean) ([2]; severe renal impairment): 13.16 h | t1/2 (Max) ([2]; severe renal impairment): 25.70 h | t1/2 (Mean) ([2]; severe renal impairment): 13.97 h | t1/2 (Median) ([2]; severe renal impairment): 12.27 h | t1/2 (Min) ([2]; severe renal impairment): 488 min | Urine Recovery as % of Dose, Geomean ([3]; Impaired hepatic function): 2.43 % of Dose | Urine Recovery as % of Dose, Mean ([3]; Impaired hepatic function): 3.51 % of Dose | CLr Geomean ([3]; Impaired hepatic function): 10.2 L/h | CLr Mean ([3]; Impaired hepatic function): 10.9 L/h | Urine Recovery as % of Dose, Geomean ([3]; Normal hepatic function): 0.93 % of Dose | Urine Recovery as % of Dose, Mean ([3]; Normal hepatic function): 1.12 % of Dose | CLr Geomean ([3]; Normal hepatic function): 14.6 L/h | CLr Mean ([3]; Normal hepatic function): 17.2^d L/h | 0-32 h Urinary Recovery (geometric mean) [3, 6]: 875.2 µg | 0-32 h Urinary Recovery (mean) [3, 6]: 1048.23 µg | 0-32 h Urinary Recovery (median) [3, 6]: 1164.3 µg | Renal Clearance, geometric mean [3, 7]: 169.75 mL/min | Renal Clearance, mean [3, 7]: 181.23 mL/min | Renal Clearance, median [3, 7]: 160.92 mL/min | 0-32 h Urinary Recovery (geometric mean) [3, 8]: 2278.1 µg | 0-32 h Urinary Recovery (mean) [3, 8]: 3294 µg | 0-32 h Urinary Recovery (median) [3, 8]: 2249.7 µg | Renal Clearance, geometric mean [3, 9]: 169.753 mL/min | Renal Clearance, mean [3, 9]: 181.233 mL/min | Renal Clearance, median [3, 9]: 160.92 mL/min | Renal Clearance, geometric mean [3, 10]: 243.011 mL/min | Renal Clearance, mean [3, 10]: 286.128 mL/min | Renal Clearance, median [3, 10]: 219.782 mL/min
